Source: ChEMBL document CHEMBL1158864, “Pyrrolizidine Alkaloids from Senecio r oseus and Senecio h elodes” (J Nat Prod, 1997)
Active and inactive are the calls of the source. No cut-off for these calls is given here.

Experiments:
[1] = test system: Artemia salina; test: (§1) Toxicity against Artemia salina; assay type: organism-based; conditions: in vivo
[2] = as §1; assay type: organism-based; conditions: in vivo
[3] = test system: Escherichia coli; test: Antimicrobial activity against Escherichia coli ATCC 10536; assay type: functional, organism-based
[4] = test system: Trichoderma viride; test: Antimicrobial activity against Trichoderma viride; assay type: functional, organism-based
[5] = test system: Aspergillus niger; test: Antimicrobial activity against Aspergillus niger; assay type: functional, organism-based

Row | SMILES | LC50 [1] [µg/mL] | LC50 [2] [µg/mL] | Activity [3] | Activity [4] | Activity [5]
1 | C[C@@H]1C[C@]2(C)CC(=O)O[C@@H]3CCN4CC=C(COC(=O)[C@@]1(C)O2)[C@H]34 [RETROISOSENINE] | > 300 | – | – | – | –
2 | C[C@@H]1C[C@]2(C)CC(=O)O[C@@H]3CCN4CC=C(COC(=O)[C@@]1(C)O2)[C@H]34 [RETROISOSENINE HYDRCHLORIDE] | – | > 300 | – | – | –
3 | C[C@@H]1[C@@H](O)[C@]2(C)CC(=O)O[C@@H]3CCN4CC=C(COC(=O)[C@@]1(C)O2)[C@H]34 | – | > 300 | inactive | inactive | inactive
4 | C[C@@H]1C[C@]2(C)CC(=O)O[C@@H]3CCN4CC=C(COC(=O)[C@@]1(C)O2)[C@H]34 | – | – | inactive | inactive | inactive
5 | C[C@@H]1C[C@]2(C)CC(=O)O[C@@H]3CCN4CC[C@H](COC(=O)[C@@]1(C)O2)[C@H]34 [MULGEDIIFOLINE] | – | > 300 | inactive | inactive | inactive
